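Dose response: 5 concentrations. Exposure: 48 h. Format: 96-well plates. Endpoint: linear interpolation; highest concentration if not reached. TGI denotes the concentration required for complete inhibition of growth.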

One assay relates to SN12C renal. Briefly: NCI anticancer screen, dose series, 48 h.
As for `Cc1oc2nc(N(C)C)n3nnnc3c2c1C`, the TGI was above 100 µM.
The same measure, in the same setting: next, `Cc1nc2cc(C(F)(F)F)ccc2[nH]c1=O`: above 100 µM; `Cc1nc(Cl)c(CBr)c(Cl)n1`: 3.75 µM; `N#CSCc1cccc(Nc2cc(=O)[nH]c(=O)[nH]2)c1`: above 100 µM.
Still for that read-out and setting: as for `COc1ccc2c(c1)C(=O)c1ccccc1C2`, the figure is above 100 µM.
In turn, `CC(C)/C(Cl)=N\OC(=O)NNc1ccccc1` came in with a TGI above 74.7 µM.
Same read-out and setting: next, `CC1=CC=CC(C)(C)CC1(O[Si](C)(C)C)C(F)(F)F` (stereo not given): above 100 µM; `CN(O)C(=O)Cc1ccc(OCc2cccc(Cl)c2)cc1`: above 100 µM; `CN(C)c1ccc(/C(Br)=C2\OC(=O)c3ccccc32)cc1`: above 100 µM.
Same read-out and setting: next, `CN1C(=O)CN(NC(=O)C2=C(O)c3ccc(Br)cc3S(=O)(=O)N2)C1=S`: above 100 µM; `O=C1OC[C@@H]2Cc3c([nH]c4ccccc34)[C@@H](c3ccc(O)cc3)N12`: above 89.7 µM.
The same measure, in the same setting: as for `Nc1ncnc2c1ncn2C(=O)NC12CC3CC(CC(C3)C1)C2`, the figure is above 100 µM; as for `CC1=C2c3ccccc3N(C(=O)/C=C/C(=O)O)[C@H]2[C@H]2C(=O)OC(=O)[C@H]2C1`, above 10 µM.
Take `CCOP(=O)(OCC)/C(F)=C/c1ccccc1`: the TGI is above 100 µM.
Consider `CC(C)(CO)N1C(=O)c2ccccc2C1(O)c1ccc(Cl)cc1` (stereo not given), for which the TGI is above 100 µM.
On the same count and under the same terms, next, `C(=Nc1ccc(-c2nc3ccccc3s2)cc1)c1ccco1`: above 100 µM.
`Cc1cccc(N(CCC#N)S(=O)(=O)c2ccccc2)c1`: the TGI was above 100 µM.
The same measure, in the same setting: as for `c1ccc2c(c1)CCCN1CCc3ccccc3C21` (stereo not given), the figure is above 100 µM.
Still for that read-out and setting: as for `CC1CC(C#N)=C2NCCCCN2C1=O` (stereo not given), the figure is above 100 µM.
Take `CCOC(=O)C1CC(O)C(=O)N1C` (stereo not given): the TGI is above 100 µM.

A further assay has as its system NCI-H460 lung. Description: NCI anticancer screen, dose series, 48 h.
The molecule `Cc1nc2cc(C(F)(F)F)ccc2[nH]c1=O` gave a TGI above 100 µM.
For the molecule `Cc1nc(Cl)c(CBr)c(Cl)n1`, the TGI was 8.38 µM.
Same read-out and setting: next, `N#CSCc1cccc(Nc2cc(=O)[nH]c(=O)[nH]2)c1`: above 100 µM; `COc1ccc2c(c1)C(=O)c1ccccc1C2`: above 100 µM; `CC(C)/C(Cl)=N\OC(=O)NNc1ccccc1`: above 100 µM.
Still for that read-out and setting: next, `CC1=CC=CC(C)(C)CC1(O[Si](C)(C)C)C(F)(F)F` (stereo not given): above 100 µM.
Molecule `CN(O)C(=O)Cc1ccc(OCc2cccc(Cl)c2)cc1` displayed a TGI above 100 µM.
`CN(C)c1ccc(/C(Br)=C2\OC(=O)c3ccccc32)cc1` showed a TGI above 100 µM.
Same read-out and setting: as for `CN1C(=O)CN(NC(=O)C2=C(O)c3ccc(Br)cc3S(=O)(=O)N2)C1=S`, the figure is above 100 µM.
The molecule `O=C1OC[C@@H]2Cc3c([nH]c4ccccc34)[C@@H](c3ccc(O)cc3)N12` returned a TGI of 81.4 µM.
On the same count and under the same terms, next, `Nc1ncnc2c1ncn2C(=O)NC12CC3CC(CC(C3)C1)C2`: above 100 µM.
On the same count and under the same terms, as for `CC1=C2c3ccccc3N(C(=O)/C=C/C(=O)O)[C@H]2[C@H]2C(=O)OC(=O)[C@H]2C1`, the figure is above 10 µM; as for `CCOP(=O)(OCC)/C(F)=C/c1ccccc1`, above 100 µM; as for `CC(C)(CO)N1C(=O)c2ccccc2C1(O)c1ccc(Cl)cc1` (stereo not given), above 100 µM.
On to `C(=Nc1ccc(-c2nc3ccccc3s2)cc1)c1ccco1`, for which the TGI was above 100 µM.
The same measure, in the same setting: as for `Cc1cccc(N(CCC#N)S(=O)(=O)c2ccccc2)c1`, the figure is above 100 µM; as for `c1ccc2c(c1)CCCN1CCc3ccccc3C21` (stereo not given), above 100 µM; as for `COC(=O)C1CC(C=[N+](C)C)=C(SC)N1` (stereo not given), above 100 µM.
Same read-out and setting: next, `N#Cc1c(OCCF)c2ccccc2n2c1nc1ccccc12`: above 100 µM; `CC1CC(C#N)=C2NCCCCN2C1=O` (stereo not given): above 100 µM.

For a further assay, the system named is SK-OV-3 ovarian. Briefly: NCI anticancer screen, dose series, 48 h.
`Cc1oc2nc(N(C)C)n3nnnc3c2c1C` returned a TGI above 100 µM.
The same measure, in the same setting: next, `Cc1nc2cc(C(F)(F)F)ccc2[nH]c1=O`: above 100 µM; `Cc1nc(Cl)c(CBr)c(Cl)n1`: 12.7 µM.
Same read-out and setting: as for `N#CSCc1cccc(Nc2cc(=O)[nH]c(=O)[nH]2)c1`, the figure is above 100 µM.
The same measure, in the same setting: next, `COc1ccc2c(c1)C(=O)c1ccccc1C2`: above 100 µM; `CC(C)/C(Cl)=N\OC(=O)NNc1ccccc1`: above 100 µM.
`CC1=CC=CC(C)(C)CC1(O[Si](C)(C)C)C(F)(F)F` (stereo not given) returned a TGI above 100 µM.
The same measure, in the same setting: next, `CN(O)C(=O)Cc1ccc(OCc2cccc(Cl)c2)cc1`: above 100 µM.
Same read-out and setting: next, `CN(C)c1ccc(/C(Br)=C2\OC(=O)c3ccccc32)cc1`: above 100 µM; `CN1C(=O)CN(NC(=O)C2=C(O)c3ccc(Br)cc3S(=O)(=O)N2)C1=S`: above 100 µM; `O=C1OC[C@@H]2Cc3c([nH]c4ccccc34)[C@@H](c3ccc(O)cc3)N12`: above 95.1 µM.
On the same count and under the same terms, next, `Nc1ncnc2c1ncn2C(=O)NC12CC3CC(CC(C3)C1)C2`: above 100 µM; `CC1=C2c3ccccc3N(C(=O)/C=C/C(=O)O)[C@H]2[C@H]2C(=O)OC(=O)[C@H]2C1`: above 10 µM; `CCOP(=O)(OCC)/C(F)=C/c1ccccc1`: above 100 µM.
`CC(C)(CO)N1C(=O)c2ccccc2C1(O)c1ccc(Cl)cc1` (stereo not given) had a TGI above 100 µM.
On the same count and under the same terms, next, `C(=Nc1ccc(-c2nc3ccccc3s2)cc1)c1ccco1`: above 100 µM; `Cc1cccc(N(CCC#N)S(=O)(=O)c2ccccc2)c1`: above 100 µM.
The same measure, in the same setting: next, `c1ccc2c(c1)CCCN1CCc3ccccc3C21` (stereo not given): above 100 µM; `COC(=O)C1CC(C=[N+](C)C)=C(SC)N1` (stereo not given): above 100 µM; `N#Cc1c(OCCF)c2ccccc2n2c1nc1ccccc12`: above 100 µM.
`CC1CC(C#N)=C2NCCCCN2C1=O` (stereo not given) displayed a TGI above 100 µM.
For `CCOC(=O)C1CC(O)C(=O)N1C` (stereo not given), the TGI is above 100 µM.

A further assay concerns RPMI-8226 leukemia. Description: NCI anticancer screen, dose series, 48 h.
`Cc1oc2nc(N(C)C)n3nnnc3c2c1C` returned a TGI above 100 µM.
On the same count and under the same terms, as for `Cc1nc2cc(C(F)(F)F)ccc2[nH]c1=O`, the figure is above 100 µM; as for `Cc1nc(Cl)c(CBr)c(Cl)n1`, 4.47 µM; as for `N#CSCc1cccc(Nc2cc(=O)[nH]c(=O)[nH]2)c1`, above 100 µM.
As for `COc1ccc2c(c1)C(=O)c1ccccc1C2`, the TGI was above 100 µM.
The molecule `CC(C)/C(Cl)=N\OC(=O)NNc1ccccc1` showed a TGI of 1.34 µM.
`CC1=CC=CC(C)(C)CC1(O[Si](C)(C)C)C(F)(F)F` (stereo not given) registered a TGI above 100 µM.
With `CN(O)C(=O)Cc1ccc(OCc2cccc(Cl)c2)cc1`, the TGI was above 100 µM.
On the same count and under the same terms, as for `CN(C)c1ccc(/C(Br)=C2\OC(=O)c3ccccc32)cc1`, the figure is 71.7 µM.
Same read-out and setting: as for `CN1C(=O)CN(NC(=O)C2=C(O)c3ccc(Br)cc3S(=O)(=O)N2)C1=S`, the figure is above 100 µM; as for `O=C1OC[C@@H]2Cc3c([nH]c4ccccc34)[C@@H](c3ccc(O)cc3)N12`, above 80.9 µM.
Still for that read-out and setting: as for `Nc1ncnc2c1ncn2C(=O)NC12CC3CC(CC(C3)C1)C2`, the figure is above 100 µM; as for `CC1=C2c3ccccc3N(C(=O)/C=C/C(=O)O)[C@H]2[C@H]2C(=O)OC(=O)[C@H]2C1`, above 10 µM; as for `CCOP(=O)(OCC)/C(F)=C/c1ccccc1`, above 100 µM.
Take `CC(C)(CO)N1C(=O)c2ccccc2C1(O)c1ccc(Cl)cc1` (stereo not given): the TGI is above 100 µM.
Molecule `C(=Nc1ccc(-c2nc3ccccc3s2)cc1)c1ccco1` displayed a TGI above 100 µM.
As to `Cc1cccc(N(CCC#N)S(=O)(=O)c2ccccc2)c1`, the TGI was above 100 µM.
In turn, `c1ccc2c(c1)CCCN1CCc3ccccc3C21` (stereo not given) yielded a TGI above 100 µM.
In turn, `COC(=O)C1CC(C=[N+](C)C)=C(SC)N1` (stereo not given) yielded a TGI above 100 µM.
In the case of `N#Cc1c(OCCF)c2ccccc2n2c1nc1ccccc12`, the TGI was above 100 µM.
For `CC1CC(C#N)=C2NCCCCN2C1=O` (stereo not given), the TGI is above 100 µM.
The molecule `CCOC(=O)C1CC(O)C(=O)N1C` (stereo not given) returned a TGI above 100 µM.

A further assay deals with OVCAR-3 ovarian. Briefly: NCI anticancer screen, dose series, 48 h.
As to `Cc1nc2cc(C(F)(F)F)ccc2[nH]c1=O`, the TGI was above 100 µM.
Same read-out and setting: as for `Cc1nc(Cl)c(CBr)c(Cl)n1`, the figure is 1.97 µM; as for `N#CSCc1cccc(Nc2cc(=O)[nH]c(=O)[nH]2)c1`, above 100 µM.
On to `COc1ccc2c(c1)C(=O)c1ccccc1C2`, for which the TGI is above 100 µM.
As to `CC(C)/C(Cl)=N\OC(=O)NNc1ccccc1`, the TGI was above 100 µM.
Still for that read-out and setting: as for `CC1=CC=CC(C)(C)CC1(O[Si](C)(C)C)C(F)(F)F` (stereo not given), the figure is above 100 µM; as for `CN(O)C(=O)Cc1ccc(OCc2cccc(Cl)c2)cc1`, above 100 µM.
Still for that read-out and setting: as for `O=C1OC[C@@H]2Cc3c([nH]c4ccccc34)[C@@H](c3ccc(O)cc3)N12`, the figure is 43.8 µM; as for `Nc1ncnc2c1ncn2C(=O)NC12CC3CC(CC(C3)C1)C2`, above 100 µM; as for `CC1=C2c3ccccc3N(C(=O)/C=C/C(=O)O)[C@H]2[C@H]2C(=O)OC(=O)[C@H]2C1`, above 10 µM.
The same measure, in the same setting: as for `CCOP(=O)(OCC)/C(F)=C/c1ccccc1`, the figure is above 100 µM.
For the molecule `CC(C)(CO)N1C(=O)c2ccccc2C1(O)c1ccc(Cl)cc1` (stereo not given), the TGI was above 100 µM.
Regarding `C(=Nc1ccc(-c2nc3ccccc3s2)cc1)c1ccco1`, the TGI was above 100 µM.
On the same count and under the same terms, next, `Cc1cccc(N(CCC#N)S(=O)(=O)c2ccccc2)c1`: above 100 µM.
The same measure, in the same setting: next, `c1ccc2c(c1)CCCN1CCc3ccccc3C21` (stereo not given): above 100 µM; `COC(=O)C1CC(C=[N+](C)C)=C(SC)N1` (stereo not given): above 100 µM; `N#Cc1c(OCCF)c2ccccc2n2c1nc1ccccc12`: above 100 µM.
On the same count and under the same terms, as for `CC1CC(C#N)=C2NCCCCN2C1=O` (stereo not given), the figure is above 100 µM; as for `CCOC(=O)C1CC(O)C(=O)N1C` (stereo not given), above 100 µM.

Another assay relates to CAKI-1 renal. Description: NCI anticancer screen, dose series, 48 h.
`Cc1oc2nc(N(C)C)n3nnnc3c2c1C` came in with a TGI above 100 µM.
Still for that read-out and setting: as for `Cc1nc2cc(C(F)(F)F)ccc2[nH]c1=O`, the figure is above 100 µM.

The record behind these values is PubChem BioAssay (NCI).
